First: Oc1ccc(C=Cc2ccc3c(Cl)cc(Cl)c(O)c3n2)cc1O
Second: Oc1ccc(C=Cc2ccc3c(Cl)cc(Cl)c(O)c3n2)c(O)c1
The logP of the first is higher: 5.55 for the first, 5.17 for the second.

First: Oc1cccc(C=Cc2ccc3cccc(O)c3n2)c1
Second: Oc1ccc(C=Cc2ccc3cccc(O)c3n2)c(O)c1
The logP of the first is higher: 4.18 for the first, 3.67 for the second.

Going from `Oc1c(Cl)cc(Cl)c2ccc(C=Cc3ccc(C=Cc4ccc5c(Cl)cc(Cl)c(O)c5n4)cc3)nc12` to `Oc1ccc(C=Cc2ccc3c(Cl)cc(Cl)c(O)c3n2)cc1`, the logP falls from 9.69 to 5.72.

First: CCOc1ccccc1C=Cc1ccc2c(Cl)cc(Cl)c(O)c2n1
Second: Oc1ccccc1C=Cc1ccc2c(Cl)cc(Cl)c(O)c2n1
The logP of the first is higher: 6.28 for the first, 5.35 for the second.

Compared with `Oc1c(Cl)cc(Cl)c2ccc(C=Cc3ccccc3Cl)nc12`, `CCOc1ccc(C=Cc2ccc3c(Cl)cc(Cl)c(O)c3n2)cc1` is lower in logP: 6.49 for the first, 6.25 for the second.

First: Oc1ccccc1C=Cc1ccc2ccccc2n1
Second: Oc1cccc2ccc(C=Cc3ccccc3Cl)nc12
The logP of the first is lower: 4.48 for the first, 4.99 for the second.

Going from `Oc1cc(O)cc(C=Cc2ccc3c(Cl)cc(Cl)c(O)c3n2)c1` to `Clc1ccccc1C=Cc1ccc2cccc(Cl)c2n1`, the logP rises from 5.44 to 5.69.

`CCOc1ccc(C=Cc2ccc3cccc(O)c3n2)cc1` and `CCOc1ccccc1C=Cc1ccc2cccc(O)c2n1` are within 0.2 log units of each other in logP: 4.75 for the first, 4.8 for the second.
